Read-outs that look alike come from different tables or passages of the source.
Tests used:
[1] = target: T1, EGFR L858R/T790M/C797S (BaF3-LTC cells) (Homo sapiens, UniProt P00533, C797S/L858R/T790M); assay: EGFR degradation HTRF assay, BaF3-LTC cells; assay type: cell-based
T1 construct: expressed in transfected cells; host or cells: BaF3
Summary of the method: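 Cells treated 16 h at 37 °C, 5% CO2 in medium with 0.2% DMSO; top final concentration 10 uM, 5-fold dilution, 8 doses. Lysates read by HTRF (665/620 nm); degradation % versus DMSO high control, DC50 from four-parameter fit, Dmax as maximal degradation.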

[2] = tested on: EGFR Del19/T790M/C797S (H1975-clone #28); assay: EGFR degradation HTRF assay, H1975-clone #28 DTC cells; assay type: cell-based
Summary of the method: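 Lentiviral Del19/T790M/C797S (clone #28) or Del19/C797S (clone #23) EGFR expressed in H1975 with endogenous EGFR knocked out. Cells treated 16 h, 37 °C, 8 doses, 5-fold from 10 uM top, 0.2% DMSO; EGFR read by HTRF after lysis. Degradation % vs DMSO control; DC50, Dmax from four-parameter fit.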

[3] = H1975 # 28 DTC cells; maximum percentage of inhibition (degradation)
[4] = BaF3-LTC cells; EGFR degradation, IC50 (DC50) from curve fit; read-out: DC50(nM) BaF3-LTC
[5] = BaF3-LTC cells; maximum percentage of inhibition (degradation); read-out: Dmax (%) BaF3-LTC
[6] = H1975 # 28 DTC cells; EGFR degradation, IC50 (DC50) from curve fit; read-out: DC50(nM) H1975 # 28 DTC

T1 sequence (P00533 25-1210 T790M/C797S/L858R): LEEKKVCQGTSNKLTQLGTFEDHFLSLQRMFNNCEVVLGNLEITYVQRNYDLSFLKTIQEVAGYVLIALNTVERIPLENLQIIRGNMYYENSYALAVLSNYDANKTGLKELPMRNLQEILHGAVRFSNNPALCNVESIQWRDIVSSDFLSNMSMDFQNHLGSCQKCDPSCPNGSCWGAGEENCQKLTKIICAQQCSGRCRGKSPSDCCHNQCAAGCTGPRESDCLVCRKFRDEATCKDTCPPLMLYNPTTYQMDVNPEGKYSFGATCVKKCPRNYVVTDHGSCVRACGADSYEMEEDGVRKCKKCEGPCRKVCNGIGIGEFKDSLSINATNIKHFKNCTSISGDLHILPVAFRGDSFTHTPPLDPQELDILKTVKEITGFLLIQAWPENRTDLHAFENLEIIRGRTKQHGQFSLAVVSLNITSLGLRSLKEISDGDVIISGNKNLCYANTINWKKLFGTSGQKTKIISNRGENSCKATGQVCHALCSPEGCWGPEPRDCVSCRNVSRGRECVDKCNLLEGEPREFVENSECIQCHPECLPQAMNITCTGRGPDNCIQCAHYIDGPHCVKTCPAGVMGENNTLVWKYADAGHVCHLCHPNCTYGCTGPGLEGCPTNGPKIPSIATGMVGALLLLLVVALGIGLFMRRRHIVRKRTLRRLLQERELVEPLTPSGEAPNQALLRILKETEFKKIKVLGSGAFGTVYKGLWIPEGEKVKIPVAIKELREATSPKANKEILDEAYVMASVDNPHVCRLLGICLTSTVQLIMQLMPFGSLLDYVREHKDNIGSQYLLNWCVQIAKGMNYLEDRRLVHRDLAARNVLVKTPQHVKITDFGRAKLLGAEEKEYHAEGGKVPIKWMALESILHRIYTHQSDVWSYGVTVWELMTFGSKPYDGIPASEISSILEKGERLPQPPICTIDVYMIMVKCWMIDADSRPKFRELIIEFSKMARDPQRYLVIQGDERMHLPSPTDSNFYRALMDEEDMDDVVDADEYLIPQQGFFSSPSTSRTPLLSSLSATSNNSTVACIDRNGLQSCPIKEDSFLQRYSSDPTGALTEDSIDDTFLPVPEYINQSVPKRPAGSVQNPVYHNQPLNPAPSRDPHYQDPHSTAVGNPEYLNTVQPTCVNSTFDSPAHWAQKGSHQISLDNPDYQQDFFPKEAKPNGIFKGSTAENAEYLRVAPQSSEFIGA

| SMILES | DC50 [1, 4] | Dmax [1, 5] | DC50 [2, 6] | DC50 ([1]; read-out: DC50(nM) BaF3-LTC; BaF3-LTC cells; EGFR degradation, IC50 (DC50) from curve fit) | Dmax ([1]; read-out: Dmax (%) BaF3-LTC, BaF3-LTC cells; maximum percentage of inhibition (degradation)) | Dmax (%) H1975 # 28 DTC [2, 3] | DC50 ([2]; read-out: DC50(nM) H1975 # 28 DTC; H1975 # 28 DTC cells; EGFR degradation, IC50 (DC50) from curve fit) |
| --- | --- | --- | --- | --- | --- | --- | --- |
| CCc1ccc2c(P(C)(C)=O)c(Nc3nc(Nc4cc(CC)c(N5CCC(N6CCN(C(=O)Cc7ccc8c(c7)oc(=O)n8C7CCC(=O)NC7=O)CC6)CC5)cc4OC)ncc3Br)ccc2n1 (stereo not shown) [Example 669, 3-(6-(2-(4-(1-(4-((5-bromo-4-((5-(dimethylphosphoryl)-2-ethylquinolin-6-yl)amino)pyrimidin-2-yl)amino)-2-ethyl-5-methoxyphenyl)piperidin-4-yl)piperazin-1-yl)-2-oxoethyl)-2-oxobenzo[d]oxazol-3(2H)-yl)piperidine-2,6-dione] |  |  |  | 4.06 nM | 91.1% | 73.26% | 0.59 nM |
| CCc1ccc2c(P(C)(C)=O)c(Nc3nc(Nc4cc(CC)c(N5CCC(N6CCN(C(=O)Cc7cccc8c7n(C)c(=O)n8C7CCC(=O)NC7=O)CC6)CC5)cc4OC)ncc3Br)cc(F)c2n1 (stereo not shown) [Example 671, 3-(4-(2-(4-(1-(4-((5-bromo-4-((5-(dimethylphosphoryl)-2-ethyl-8-fluoroquinolin-6-yl)amino)pyrimidin-2-yl)amino)-2-ethyl-5-methoxyphenyl)piperidin-4-yl)piperazin-1-yl)-2-oxoethyl)-3-methyl-2-oxo-2,3-dihydro-1H-benzo[d]imidazol-1-yl)piperidine-2,6-dione] | 4.85 nM | 92.7% | 0.219 nM |  |  | 75.9% |  |
| CCOc1cc(N2CCC(N3CCN(CCc4cc(F)c([C@H]5CCC(=O)NC5=O)c(F)c4)CC3)CC2)c(CC)cc1Nc1ncc(Br)c(Nc2cc(F)c3ncc(C)cc3c2P(C)(C)=O)n1 [Example 672, (R)-3-(4-(2-(4-(1-(4-((5-bromo-4-((5-(dimethylphosphoryl)-8-fluoro-3-methylquinolin-6-yl)amino)pyrimidin-2-yl)amino)-5-ethoxy-2-ethylphenyl)piperidin-4-yl)piperazin-1-yl)ethyl)-2,6-difluorophenyl)piperidine-2,6-dione] | 6.6 nM | 86.9% | 0.723 nM |  |  | 87.05% |  |
| CCc1cc(Nc2ncc(Br)c(Nc3ccc4nc(C#N)ccc4c3P(C)(C)=O)n2)c(OC)cc1N1CCC(N2CCN(C(=O)[C@@H]3CCN(c4cc(F)c([C@H]5CCC(=O)NC5=O)c(F)c4)C3)CC2)CC1 [Example 674, 6-((5-bromo-2-((4-(4-(4-((R)-1-(4-((R)-2,6-dioxopiperidin-3-yl)-3,5-difluorophenyl)pyrrolidine-3-carbonyl)piperazin-1-yl)piperidin-1-yl)-5-ethyl-2-methoxyphenyl)amino)pyrimidin-4-yl)amino)-5-(dimethylphosphoryl)quinoline-2-carbonitrile] | 9.62 nM | 94.6% | 2.19 nM |  |  | 69.95% |  |
| CCOc1ccc2c(P(C)(C)=O)c(Nc3nc(Nc4cc(CC)c(N5CCC(N6CCN(C(=O)[C@@H]7CCN(c8cc(F)c([C@H]9CCC(=O)NC9=O)c(F)c8)C7)CC6)CC5)cc4OC)ncc3Br)ccc2n1 [Example 677, (R)-3-(4-((R)-3-(4-(1-(4-((5-bromo-4-((5-(dimethylphosphoryl)-2-ethoxyquinolin-6-yl)amino)pyrimidin-2-yl)amino)-2-ethyl-5-methoxyphenyl)piperidin-4-yl)piperazine-1-carbonyl)pyrrolidin-1-yl)-2,6-difluorophenyl)piperidine-2,6-dione] | 38 nM | 94.3% | 3.83 nM |  |  | 77.05% |  |
| CCOc1cc(N2CCC(N3CCN(C(=O)[C@@H]4CCN(c5cc(F)c([C@H]6CCC(=O)NC6=O)c(F)c5)C4)CC3)CC2)c(CC)cc1Nc1ncc(Br)c(Nc2cc(F)c3ncccc3c2P(C)(C)=O)n1 [Example 678, (R)-3-(4-((R)-3-(4-(1-(4-((5-bromo-4-((5-(dimethylphosphoryl)-8-fluoroquinolin-6-yl)amino)pyrimidin-2-yl)amino)-5-ethoxy-2-ethylphenyl)piperidin-4-yl)piperazine-1-carbonyl)pyrrolidin-1-yl)-2,6-difluorophenyl)piperidine-2,6-dione] | 5.8 nM | 94.9% | 1.39 nM |  |  | 81.53% |  |
| CCOc1cc(N2CCC(N3CCN(CCc4cc(F)c([C@H]5CCC(=O)NC5=O)c(F)c4)CC3)CC2)c(CC)cc1Nc1ncc(Br)c(Nc2ccc3c(=O)n(CC)ncc3c2P(C)(C)=O)n1 [Example 679, (R)-3-(4-(2-(4-(1-(4-((5-bromo-4-((5-(dimethylphosphoryl)-2-ethyl-1-oxo-1,2-dihydrophthalazin-6-yl)amino)pyrimidin-2-yl)amino)-5-ethoxy-2-ethylphenyl)piperidin-4-yl)piperazin-1-yl)ethyl)-2,6-difluorophenyl)piperidine-2,6-dione] | 22.6 nM | 93.3% | 1.75 nM |  |  | 83.46% |  |

The remaining compounds from weak to strong by DC50 [1, 4], led by results:

| DC50 [1, 4] | Dmax [1, 5] | DC50 [2, 6] | SMILES | DC50 ([1]; read-out: DC50(nM) BaF3-LTC; BaF3-LTC cells; EGFR degradation, IC50 (DC50) from curve fit) | Dmax ([1]; read-out: Dmax (%) BaF3-LTC, BaF3-LTC cells; maximum percentage of inhibition (degradation)) | Dmax (%) H1975 # 28 DTC [2, 3] | DC50 ([2]; read-out: DC50(nM) H1975 # 28 DTC; H1975 # 28 DTC cells; EGFR degradation, IC50 (DC50) from curve fit) |
| --- | --- | --- | --- | --- | --- | --- | --- |
| 5.79 nM | 93.3% | 0.677 nM | CCc1cc(Nc2ncc(Br)c(Nc3ccc4c(=O)n(CC)ncc4c3P(C)(C)=O)n2)c(OC)cc1N1CCC(N2CCN(C(=O)[C@@H]3CCN(c4cc(F)c([C@H]5CCC(=O)NC5=O)c(F)c4)C3)CC2)CC1 [Example 673, (R)-3-(4-((R)-3-(4-(1-(4-((5-bromo-4-((5-(dimethylphosphoryl)-2-ethyl-1-oxo-1,2-dihydrophthalazin-6-yl)amino)pyrimidin-2-yl)amino)-2-ethyl-5-methoxyphenyl)piperidin-4-yl)piperazine-1-carbonyl)pyrrolidin-1-yl)-2,6-difluorophenyl)piperidine-2,6-dione] |  |  | 85.2% |  |
| 4.96 nM | 95.1% | 0.763 nM | CCc1cc(Nc2ncc(Br)c(Nc3ccc4nc(C(C)(C)O)ccc4c3P(C)(C)=O)n2)c(OC)cc1N1CCC(N2CCN(C(=O)[C@@H]3CCN(c4cc(F)c(C5CCC(=O)NC5=O)c(F)c4)C3)CC2)CC1 (stereo partly drawn) [Example 680, 3-(4-((R)-3-(4-(1-(4-((5-bromo-4-((5-(dimethylphosphoryl)-2-(2-hydroxypropan-2-yl)quinolin-6-yl)amino)pyrimidin-2-yl)amino)-2-ethyl-5-methoxyphenyl)piperidin-4-yl)piperazine-1-carbonyl)pyrrolidin-1-yl)-2,6-difluorophenyl)piperidine-2,6-dione] |  |  | 85.2% |  |
| 4.65 nM | 96% | 1.37 nM | CCc1cc(Nc2ncc(Br)c(Nc3ccc4nc(C)ccc4c3P(C)(C)=O)n2)c(OC)cc1N1CCC(N2CCN(C(=O)[C@H]3CC[C@@H](Oc4cc(F)c(C5CCC(=O)NC5=O)c(F)c4)CC3)CC2)CC1 (stereo partly shown) [Example 681, 3-(4-(((1s,4s)-4-(4-(1-(4-((5-bromo-4-((5-(dimethylphosphoryl)-2-methylquinolin-6-yl)amino)pyrimidin-2-yl)amino)-2-ethyl-5-methoxyphenyl)piperidin-4-yl)piperazine-1-carbonyl)cyclohexyl)oxy)-2,6-difluorophenyl)piperidine-2,6-dione] |  |  | 77.05% |  |
| 4.3 nM | 96.5% | 1.01 nM | CCc1cc(Nc2ncc(Br)c(Nc3ccc4nc(C)ccc4c3P(C)(C)=O)n2)c(OC)cc1N1CCC(N2CCN(C(=O)[C@@H]3CCN(c4cc(F)c([C@H]5CCC(=O)NC5=O)c(F)c4)C3)[C@H](CO)C2)CC1 [Example 675, (R)-3-(4-((R)-3-((S)-4-(1-(4-((5-bromo-4-((5-(dimethylphosphoryl)-2-methylquinolin-6-yl)amino)pyrimidin-2-yl)amino)-2-ethyl-5-methoxyphenyl)piperidin-4-yl)-2-(hydroxymethyl)piperazine-1-carbonyl)pyrrolidin-1-yl)-2,6-difluorophenyl)piperidine-2,6-dione] |  |  | 82.47% |  |
| 3.37 nM | 88.3% | 0.634 nM | CCc1cc(Nc2ncc(Br)c(Nc3ccc4nc(C)ccc4c3P(C)(C)=O)n2)c(OC)cc1N1CCC(N2CCN(C(=O)Cc3cc(F)c([C@H]4CCC(=O)NC4=O)c(F)c3)CC2)CC1 [Example 670, (R)-3-(4-(2-(4-(1-(4-((5-bromo-4-((5-(dimethylphosphoryl)-2-methylquinolin-6-yl)amino)pyrimidin-2-yl)amino)-2-ethyl-5-methoxyphenyl)piperidin-4-yl)piperazin-1-yl)-2-oxoethyl)-2,6-difluorophenyl)piperidine-2,6-dione] |  |  | 83.95% |  |
| 3.14 nM | 96.4% | 0.64 nM | CCOc1cc(N2CCC(N3CCN(CCc4ccc5c(c4)oc(=O)n5C4CCC(=O)NC4=O)CC3)CC2)c(CC)cc1Nc1ncc(Br)c(Nc2ccc3nc(C)ccc3c2P(C)(C)=O)n1 (stereo not shown) [Example 676, 3-(6-(2-(4-(1-(4-((5-bromo-4-((5-(dimethylphosphoryl)-2-methylquinolin-6-yl)amino)pyrimidin-2-yl)amino)-5-ethoxy-2-ethylphenyl)piperidin-4-yl)piperazin-1-yl)ethyl)-2-oxobenzo[d]oxazol-3(2H)-yl)piperidine-2,6-diQne] |  |  | 88.89% |  |

Source: patent US20230265116A1, “DEGRADATION OF (EGFR) BY CONJUGATION OF EGFR INHIBITORS WITH E3 LIGASE LIGAND AND METHODS OF USE” (BEIGENE, LTD., priority 2020, published 2023)
